Experimental data from patent publication US20110045101A1, “FUNGICIDAL SUBSTITUTED AZOLES” (E.I. Du Pont De Nemours and Company, priority 2009, published 2011).
Marks after values point to notes of the source that are not given here.

Columns and labels:
Assay type in all cases: in vivo
Conditions in all cases: 100 = 100% disease control
[1] = test system: Erysiphe graminis f. sp. tritici; assay: Test J: wheat powdery mildew on wheat seedlings, sprayed the day before inoculation, visual disease rating
In short: (§1)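 200 ppm run-off spray (500 g/ha equivalent); * = 40 ppm. Vehicle: acetone/water 50/50, 250 ppm Trem® 014.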

[2] = test system: Septoria nodorum; assay: Test F: wheat glume blotch on wheat seedlings, sprayed the day before inoculation, visual disease rating
In short: as §1

[3] = test system: Septoria tritici; assay: Test G: wheat leaf blotch on wheat seedlings, sprayed the day before inoculation, visual disease rating
In short: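 Spray to run-off, 200 ppm (≈500 g/ha; starred = 40 ppm), acetone/water 50/50 + 250 ppm Trem® 014. Spore inoculation +1 d. 24° C saturated 48 h → 20° C 19 d. Visual rating.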

[4] = test system: Botrytis cinerea; assay: Test C: tomato Botrytis on tomato seedlings, sprayed the day before inoculation, visual disease rating
In short: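 Tomato seedlings were sprayed until run-off with test suspensions in acetone/water (50/50) carrying 250 ppm polyhydric alcohol ester surfactant. Standard dose was 200 ppm, with 40 ppm for marked entries.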

[5] = test system: Puccinia recondita f. sp. tritici; assay: Test I: wheat leaf rust on wheat seedlings, sprayed the day before inoculation, visual disease rating
In short: as §1

[6] = test system: Puccinia recondita f. sp. tritici; assay: Test H: wheat leaf rust, test suspension sprayed after inoculation of wheat seedlings, visual disease rating
In short: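 Wheat seedlings inoculated with P. recondita spores, held 24 h saturated at 20 °C, then 2 days in growth chamber at 20 °C; compound suspension (acetone/water with Trem 014) sprayed to run-off afterwards. Rated visually; 200 ppm (≈500 g/ha) unless marked *, which denotes 40 ppm.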

[7] = test system: Alternaria solani; assay: Test D: tomato early blight, sprayed the day before inoculation, visual disease rating
In short: as §1

[8] = 200 ppm, 0 = no control relative to controls
[9] = 40 ppm (marked *), 0 = no control

| Compound | Test J disease control rating [1, 8] | Test F disease control rating [2, 8] | Test G disease control rating [3, 8] | Test C disease control rating [4, 8] | Test I disease control rating [5, 8] | Test H disease control rating [6, 8] | Test D disease control rating [7, 8] | other results |
| --- | --- | --- | --- | --- | --- | --- | --- | --- |
| COc1ccc(F)c(-c2c(Cl)nc(Cl)n2-c2ccc(F)cc2)c1F [compound 390] | 100% | 99% | 95% | 100% | 100% | 18% | 100% | – |
| COc1cc(OC)cc(-n2c(Cc3ccc(F)cc3F)cnc2C)c1 [compound 476] | 47% | 0% | 59% | 0% | 78% | 0% | 0% | – |
| Cc1nc(Br)c(Cc2c(F)cc(F)cc2F)n1-c1c(Cl)cccc1Cl [compound 538] | 100% | 0% | 99% | 99% | 100% | 27% | 0% | – |
| Fc1ccc(-n2c(Br)nc(Br)c2-c2c(F)cc(F)cc2F)cc1 [compound 462] | – | – | – | – | – | – | – | Test J disease control rating ([1]; 40 ppm (marked *)): 99* %; Test F disease control rating ([2]; 40 ppm (marked *)): 0* %; Test G disease control rating ([3]; 40 ppm (marked *)): 96* %; Test C disease control rating ([4]; 40 ppm (marked *)): 100* %; Test I disease control rating ([5]; 40 ppm (marked *)): 78* %; Test H disease control rating ([6]; 40 ppm (marked *)): 0* %; Test D disease control rating ([7]; 40 ppm (marked *)): 100* % |
| Cc1ccc(-n2c(Cl)nc(Cl)c2-c2ccc(F)cc2Cl)cc1 [compound 282] | – | – | – | – | – | – | – | Test J disease control rating ([1]; 200 ppm, 0 = no control): 100%; Test F disease control rating ([2]; 200 ppm, 0 = no control): 0%; Test G disease control rating ([3]; 200 ppm, 0 = no control): 93%; Test C disease control rating ([4]; 200 ppm, 0 = no control): 99%; Test I disease control rating ([5]; 200 ppm, 0 = no control): 99%; Test H disease control rating ([6]; 200 ppm, 0 = no control): 65%; Test D disease control rating ([7]; 200 ppm, 0 = no control): 99% |
| Cc1nc(Cl)c(-c2c(F)ccc(F)c2F)n1-c1cccc(F)c1 [compound 369] | 99% | 98% | 92% | 99% | 99% | 74% | 100% | – |
| Cc1ncn(-c2ccc(Cl)c(F)c2)c1-c1cccnc1Cl [compound 348] | 27% | 0% | 8% | 0% | 0% | 0% | 0% | – |
| COc1ccc(F)c(-c2c(Br)nc(Br)n2-c2ccc(Cl)cc2)c1F [compound 471] | 100% | 100% | 97% | 100% | 98% | 0% | 100% | – |
| Fc1ccc(-n2cnc(Br)c2-c2c(F)ccc(F)c2Cl)cc1 [compound 508] | 99% | 0% | 94% | 100% | 99% | 78% | 100% | – |
| COc1ccc(F)c(-c2c(C)nc(C)n2-c2ccc(F)cc2)c1F [Compound 549, 5-(2,6-difluoro-3-methoxyphenyl)-1-(4-fluorophenyl)-2,4-dimethyl-1H-imidazole] | – | – | – | – | – | – | – | pest or weed control at 200 ppm ([1]; Blumeria graminis, 168 h, 200 ppm, 0 = no control relative to controls): 100%; pest or weed control at 200 ppm ([2]; Parastagonospora nodorum, 264 h, 200 ppm, 0 = no control relative to controls): 99%; pest or weed control at 200 ppm ([3]; Zymoseptoria tritici, 504 h, 200 ppm, 0 = no control relative to controls): 98%; pest or weed control at 200 ppm ([4]; Botrytis cinerea, 120 h, 200 ppm, 0 = no control relative to controls): 100%; pest or weed control at 200 ppm ([5]; Puccinia recondita, 168 h, 200 ppm, 0 = no control relative to controls): 100%; pest or weed control at 200 ppm ([6]; Puccinia recondita, 96 h, 200 ppm, 0 = no control relative to controls): 0%; pest or weed control at 200 ppm ([7]; Alternaria solani, 168 h, 200 ppm, 0 = no control relative to controls): 100% |
| COc1ccc(F)c(-c2c(Cl)nc(Cl)n2-c2ccc(Cl)c(C)c2)c1F [compound 399] | 100% | 82% | 96% | 100% | 82% | 0% | 99% | – |
| Cc1nc(Br)n(-c2ccc(Cl)nc2)c1-c1c(F)ccc(C#N)c1F [compound 715] | 73% | 78% | 99% | 100% | 99% | 100% | 100% | – |
| COc1cncc(F)c1-c1c(Cl)nc(Cl)n1-c1ccc(Cl)c(F)c1 [compound 435] | 0% | 0% | 99% | 99% | 68% | 0% | 24% | – |
| COc1cc(F)c(-n2c(C)nc(Cl)c2-c2ccc(Cl)cc2)c(F)c1 [compound 423] | – | – | – | – | – | – | – | Test J disease control rating [1, 9]: 99* %; Test F disease control rating [2, 9]: 69* %; Test G disease control rating [3, 9]: 94* %; Test C disease control rating [4, 9]: 100* %; Test I disease control rating [5, 9]: 91* %; Test H disease control rating [6, 9]: 0* %; Test D disease control rating [7, 9]: 0* % |
| COc1ccc(F)c(-c2c(Br)nc(Br)n2-c2ccc(C)cc2)c1F [compound 511] | 100% | 99% | 99% | 99% | 99% | 0% | 99% | – |
| Fc1cc(-n2cnc(Cl)c2-c2c(F)cncc2F)ccc1Cl [compound 594] | 100% | 0% | 94% | 100% | 99% | 78% | 99% | – |
| Cc1ccc(-n2c(Cl)nc(C)c2-c2c(F)ccc(F)c2F)cc1 [compound 496] | – | – | – | – | – | – | – | Test J disease control rating ([1]; 40 ppm (marked *)): 97* %; Test F disease control rating ([2]; 40 ppm (marked *)): 0* %; Test G disease control rating ([3]; 40 ppm (marked *)): 6* %; Test C disease control rating ([4]; 40 ppm (marked *)): 93* %; Test I disease control rating ([5]; 40 ppm (marked *)): 0* %; Test H disease control rating ([6]; 40 ppm (marked *)): 0* %; Test D disease control rating ([7]; 40 ppm (marked *)): 99* % |
| COc1nn(C)c(-c2ccc(F)cc2Cl)c1-c1ccc(I)cc1 [compound 432] | 0% | 0% | 25% | 33% | 0% | 0% | 0% | – |
| COc1cc(F)c(-c2c(Cl)nc(C)n2-c2ccc(OC(F)F)cc2)c(F)c1 [compound 569] | 99% | 100% | 97% | 100% | 100% | 84% | 100% | – |
| N#Cc1ccc(-n2cnc(Cl)c2-c2c(F)ccc(C#N)c2F)cc1 [compound 387] | 0% | 0% | 0% | 0% | 0% | 0% | 0% | – |
| COc1cc(F)c(-c2c(Cl)nc(SC)n2-c2ccc(C)cc2)c(F)c1 [compound 695] | 96% | 97% | 99% | 100% | 99% | 97% | 99% | – |
| COc1cc(F)c(-c2c(Cl)nc(C)n2-c2cccc(OC(F)F)c2)c(F)c1 [compound 588] | 100% | 100% | 97% | 100% | 100% | 100% | 100% | – |
| COc1cc(F)c(-c2c(Cl)nc(Cl)n2Cc2ccc(Cl)nc2)c(F)c1 [compound 667] | 76% | 100% | 99% | 100% | 97% | 8% | 100% | – |
